From PMC7369893, “Antimicrobial Peptides Display Strong Synergy with Vancomycin Against Vancomycin-Resistant E. faecium, S. aureus, and Wild-Type E. coli” (International Journal of Molecular Sciences, 2020)
≈ marks a conversion by molar mass, not a printed value. Read-outs that look alike come from different tables or passages of the source. Residues, ends and D or L forms follow the SMILES beside them.

Assays:
[1] = test system: E. faecium BCRC 15B0132 (VRE); assay: microbe, parasite or virus in culture; type: cell-based, Enterococcus faecium
Method: (§1) The antibacterial activities of peptides were determined by the standard broth microdilution method according to the guidelines of the Clinical and Laboratory Standards Institute (CLSI). Briefly, E. coli ATCC 25922 were incubated in MHB, and E. faecium BCRC 15B0132, VISA and VRSA strains were incubated in TSB overnight at 37 °C. The cell cultures were regrown to the mid-log phase and subsequently diluted to a final concentration of 5 × 10^5 CFU/mL. The 1 µL peptides or antibiotic were loaded into each well at the final concentration of 64, 32, 16, 8, 4, 2, 1, and 0.5 µg/mL, then loaded 99 µL diluted microbes into each well of polypropylene 96-well plate. After 16 h of incubation at 37 °C, the turbidity at OD600 was measured by the microplate reader. The minimal inhibitory concentration (MIC) value was defined as the lowest concentration of peptide or antibiotic, which inhibited the 90% visible growth of bacteria. All experiments were repeated three times independently.

[2] = test system: Vancomycin-intermediate S. aureus 01 (VISA01); assay: microbe, parasite or virus in culture; type: cell-based, Staphylococcus aureus
Method: as §1

[3] = test system: Vancomycin-intermediate S. aureus 02 (VISA02); assay: microbe, parasite or virus in culture; type: cell-based, Staphylococcus aureus
Method: as §1

[4] = test system: Vancomycin-intermediate S. aureus 03 (VISA03); assay: microbe, parasite or virus in culture; type: cell-based, Staphylococcus aureus
Method: as §1

[5] = test system: Vancomycin-resistant S. aureus 01 (VRSA01); assay: microbe, parasite or virus in culture; type: cell-based, Staphylococcus aureus; conditions: 16 h
Method: (§2) For the purpose of inducing vancomycin-resistant Staphylococcus aureus (VRSA), the VISA01, VISA02, and VISA03 bacteria were incubated overnight in culture medium, and transferring 50 µL of bacteria to 5 mL of fresh medium containing 2 μg/mL of vancomycin then incubated overnight. The bacteria were transferred to new tube with doubling vancomycin concentration and then incubated overnight again. The concentration of vancomycin during serial passage was 2, 4, 8, 16, and 32 µg/mL. The procedure was repeated until meeting the final concentration of 32 µg/mL. After serial passage, the cell resistance was confirmed by using an MIC assay.
as §1

[6] = test system: Vancomycin-resistant S. aureus 02 (VRSA02); assay: microbe, parasite or virus in culture; type: cell-based, Staphylococcus aureus; conditions: 16 h
Method: as §2, §1

[7] = test system: Vancomycin-resistant S. aureus 03 (VRSA03); assay: microbe, parasite or virus in culture; type: cell-based, Staphylococcus aureus; conditions: 16 h
Method: as §2, §1

[8] = test system: E. coli ATCC 25922; assay: microbe, parasite or virus in culture; type: cell-based, Escherichia coli
Method: as §1

[9] = test system: VRE, VISA, VRSA, and E. coli strains; assay: microbe, parasite or virus in culture; type: cell-based; conditions: for MIC: Staphylococcus aureus
Method: as §1

[10] = test system: VRE, VISA, VRSA and E. coli strains; assay: Checkerboard assay, summary statements of the text over the strain panel; type: cell-based; conditions: peptide at ¼ ×MIC combined with vancomycin, all strains studied
Method: The synergistic effects of peptides in combination with vancomycin were investigated by checkerboard assay with slight modification. The peptides were fixed concentration at ¼ × MIC, then in combination with antibiotics at various concentrations in each well of 96-well plate. Then the peptide/antibiotic were mixed with inoculum (5 × 10^5 CFU/mL) and incubated at 37 °C for 16 h. The fractional inhibitory concentration (FIC) index was calculated as follows: FIC index = (MIC of drug A in combination/MIC of drug A alone) + (MIC of drug B in combination/MIC of drug B alone). An FIC index of ≤ 0.5 was defined as synergy, indifference was defined as an FIC index of 0.5 < FICI ≤ 4, antagonism was defined as an FIC index of > 4. The experiments were performed in triplicate.

[11] = test system: E. faecium BCRC 15B0132 (VRE); assay: Time killing assay; type: cell-based, Enterococcus faecium; conditions: 5 × 10^5 CFU/mL, 1 × MIC, 0.5-24 h, 37 °C, triplicate
Method: (§3) The bactericidal activities of vancomycin, P-113, Phe-P-113, Bip-P-113, Dip-P-113, and Nal-P-113 against E. faecium BCRC 15B0132 (VRE) and E. coli ATCC 25922 were assessed by the time-kill analysis. The cells were grown overnight in TSB or MHB at 37 °C with shaking, and then fresh TSB or MHB was inoculated for growth to mid-logarithmic phase. Bacteria (5 × 10^5 CFU/mL) were treated with 1 × MIC vancomycin, P-113, Phe-P-113, Bip-P-113, Dip-P-113, and Nal-P-113 for 0.5, 1, 2, 4, 6, 10, and 24 h at 37 °C. Bacteria without peptides and vancomycin served as a control. Aliquots were removed at each time points, and 10-fold serial dilutions of the aliquot were plated onto the Müller-Hinton agar. The numbers of CFU were counted after 24 h of incubation at 37 °C. The detection limit for the colony counts was 2log10 CFU/mL.

[12] = test system: E. coli ATCC 25922; assay: Time killing assay; type: cell-based, Escherichia coli; conditions: E. coli ATCC 25922, 5 × 10^5 CFU/mL, 1 × MIC, 0.5-24 h, 37 °C; triplicate
Method: as §3

[13] = test system: E. faecium BCRC 15B0132; assay: Uptake of BODIPY-labeled vancomycin, confocal laser scanning microscopy; type: cell-based, Enterococcus faecium; conditions: VRE 10^7 CFU/mL, 0.5 ×MIC peptide 30 min at 37 °C, then BODIPY-labeled vancomycin (2 μg/mL) 30 min; mean fluorescence intensity
Method: (§4) The fluorescence experiments were performed with slight modification as described previously. Briefly, the bacteria (10^7 CFU/mL) were incubated with 0.5 ×MIC antimicrobial peptides for 30 min and then treated with BODIPY-labeled vancomycin (2 μg/mL) for 30 min. Samples treated with BODIPY-labeled vancomycin only served as a control. After incubation, bacteria were centrifuged at 8000× g for 5 min, washed three times with PBS to remove unbinding fluorescence dye, and resuspended by PBS. The resuspended solution were loaded on the glass slides (Polysine™, Thermo Fisher Scientific, Waltham, MA, USA) and visualized under confocal laser scanning microscope (LSM 510 META, Carl Zeiss, Jena, Thüringen, Germany) equipped with a 64× oil objective lens (Carl Zeiss, Jena, Thüringen, Germany).

[14] = test system: E. coli ATCC 25922; assay: as above; type: cell-based, Escherichia coli; conditions: E. coli 10^7 CFU/mL, 0.5 ×MIC peptide 30 min at 37 °C, then BODIPY-labeled vancomycin (2 μg/mL) 30 min; mean fluorescence intensity
Method: as §4

[15] = POPC:POPG (3:1, mol/mol) and POPC:LPS (4:1, mol/mol) LUVs; cited from earlier work
From the text: Dathe and coauthors used POPC:LPS as model prokaryotic membranes to study peptide activity against E. coli and the role of LPS [20]. Previously, we have evaluated the membrane-permeability of P-113 and its derivatives by measuring the release of calcein from various phospholipid vesicles such as POPC:POPG (3:1, mol/mol) LUVs (mimic the anionic bacterial membrane) and POPC:LPS (4:1, mol/mol) LUVs (served as surrogates of Gram-negative bacterial membranes that contain LPS). […] Nal- ...

## CC(=O)N[C@@H](C)C(=O)N[C@@H](CCCCN)C(=O)N[C@@H](CCCNC(=N)N)C(=O)N[C@@H](Cc1ccccc1)C(=O)N[C@@H](Cc1ccccc1)C(=O)NCC(=O)N[C@@H](Cc1ccc(O)cc1)C(=O)N[C@@H](CCCCN)C(=O)N[C@@H](CCCNC(=N)N)C(=O)N[C@@H](CCCCN)C(=O)N[C@@H](Cc1ccccc1)C(=O)N[C@@H](Cc1ccccc1)C(N)=O [Phe-P-113] (Ac-AKRFFGYKRKFF-NH2)
[1]; BCRC 15, 16 h
  MIC: >64 µg/mL
[2]; Vancomycin-intermediate 01 (VISA01, 16 h)
  MIC: >64 µg/mL
[3]; Vancomycin-intermediate 02 (VISA02, 16 h)
  MIC: >64 µg/mL
[4]; Vancomycin-intermediate 03 (VISA03, 16 h)
  MIC: >64 µg/mL
[5]; VRSA01 (induced from VISA01 by serial passage), CLSI broth microdilution, TSB, 5 × 10^5 CFU/mL, 37 °C, triplicate
  MIC: >64 µg/mL
[6]; VRSA02 (induced from VISA02 by serial passage), CLSI broth microdilution, TSB, 5 × 10^5 CFU/mL, 37 °C, triplicate
  MIC: >64 µg/mL
[7]; VRSA03 (induced from VISA03 by serial passage), CLSI broth microdilution, TSB, 5 × 10^5 CFU/mL, 37 °C, triplicate
  MIC: >64 µg/mL
[8]; ATCC 25922, 16 h
  MIC: >64 µg/mL
[9]; 16 h
  MICs against these bacterial strains: > 64 µg/mL
[10]
  synergy with vancomycin (interpretation of FICI): no synergy
[11]
  killing kinetics: slower or limited killing kinetics
[12]
  killing kinetics: limited bactericidal activity
[13]
  entry of BODIPY-labeled vancomycin into the bacteria (rank order): Bip-P-113 = Nal-P-113 > Dip-P-113 > Phe-P-113 = P-113
[14]
  entry of BODIPY-labeled vancomycin into the bacteria (rank order): Bip-P-113 > Nal-P-113 > Dip-P-113 > Phe-P-113 = P-113
[15]
  calcein leakage from LUVs: only weak abilities in causing calcein leakage

## CN[C@H](CC(C)C)C(=O)N[C@H]1C(=O)N[C@@H](CC(N)=O)C(=O)N[C@H]2C(=O)N[C@H]3C(=O)N[C@H](C(=O)N[C@H](C(=O)O)c4cc(O)cc(O)c4-c4cc3ccc4O)[C@H](O)c3ccc(c(Cl)c3)Oc3cc2cc(c3O[C@@H]2O[C@H](CO)[C@@H](O)[C@H](O)[C@H]2O[C@H]2C[C@](C)(N)[C@H](O)[C@H](C)O2)Oc2ccc(cc2Cl)[C@H]1O [Vancomycin]
[1]; E. faecium BCRC 15B0132 (VRE), CLSI broth microdilution, TSB, 5 × 10^5 CFU/mL, 16 h, 37 °C, OD600, 90% growth inhibition, triplicate
  MIC: 64 µg/mL (≈ 44.2 µM)
[1]; Enterococcus faecium, VRE, 16 h
  MIC: 64 µg/mL (≈ 44.2 µM)
[2]; Staphylococcus aureus, 16 h
  MIC: 4 µg/mL (≈ 2.76 µM)
[3]; Staphylococcus aureus, 16 h
  MIC: 4 µg/mL (≈ 2.76 µM)
[4]; Staphylococcus aureus, 16 h
  MIC: 4 µg/mL (≈ 2.76 µM)
[5]; Staphylococcus aureus
  MIC: 32 µg/mL (≈ 22.1 µM)
[6]; Staphylococcus aureus
  MIC: 32 µg/mL (≈ 22.1 µM)
[7]; Staphylococcus aureus
  MIC: 32 µg/mL (≈ 22.1 µM)
[8]; E. coli ATCC 25922, CLSI broth microdilution, MHB, 5 × 10^5 CFU/mL, 16 h, 37 °C, OD600, 90% growth inhibition, triplicate
  MIC: > 64 µg/mL
[8]; Escherichia coli, ATCC25922, 16 h
  MIC: > 64 µg/mL
[9]; read-out: MIC against VISA strains
  MIC: 4 µg/mL (≈ 2.76 µM)
[9]; read-out: MIC against VRSA strains
  MIC: 32 µg/mL (≈ 22.1 µM)
[11]
  killing kinetics: slower or limited killing kinetics
[12]
  killing kinetics: limited bactericidal activity
